In the supplement of paper PMC10307832:

Tests used:
Assay in all cases: relative viability (nuclei count vs DMSO), 5 days (fraction); higher = more cells survive
Nelarabine + Crizotinib = compound: COc1nc(N)nc2c1ncn2[C@@H]1O[C@H](CO)[C@@H](O)[C@@H]1O [Nelarabine] + C[C@@H](Oc1cc(-c2cnn(C3CCNCC3)c2)cnc1N)c1c(Cl)ccc(F)c1Cl [Crizotinib] (partner 1 µM)
In short: (§1)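 One day after seeding in 1536-well plates, lung cancer cell lines were dosed by pin tool. Dosing was either single-drug or a fixed anchor-drug dose plus five library-drug doses (not always all listed) in √10 steps. After 5 days, nuclei were stained in one fix-and-stain step and counted on 4× images, and relative viability is the nuclei count of treated wells over that of vehicle wells, given as the median of duplicate plates.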

Nelarabine + Foretinib = compound: COc1nc(N)nc2c1ncn2[C@@H]1O[C@H](CO)[C@@H](O)[C@@H]1O [Nelarabine] + COc1cc2c(Oc3ccc(NC(=O)C4(C(=O)Nc5ccc(F)cc5)CC4)cc3F)ccnc2cc1OCCCN1CCOCC1 [Foretinib] (partner 0.25 µM)
In short: as §1

Adavosertib + AZD7762 = compound: C=CCn1c(=O)c2cnc(Nc3ccc(N4CCN(C)CC4)cc3)nc2n1-c1cccc(C(C)(C)O)n1 [Adavosertib] + NC(=O)Nc1cc(-c2cccc(F)c2)sc1C(=O)N[C@H]1CCCNC1 [AZD7762] (partner 0.2 µM)
In short: as §1

Adavosertib + Vorinostat = compound: C=CCn1c(=O)c2cnc(Nc3ccc(N4CCN(C)CC4)cc3)nc2n1-c1cccc(C(C)(C)O)n1 [Adavosertib] + O=C(CCCCCCC(=O)Nc1ccccc1)NO [Vorinostat] (partner 1 µM)
In short: as §1

| Cell Line | relative viability (Nelarabine + Crizotinib; first compound 0.01 µM) | relative viability (Nelarabine + Crizotinib; first compound 0.03162 µM) | relative viability (Nelarabine + Crizotinib; first compound 0.1 µM) | relative viability (Nelarabine + Crizotinib; first compound 0.3162 µM) | relative viability (Nelarabine + Crizotinib; first compound 1 µM) | relative viability (Nelarabine + Foretinib; first compound 0.01 µM) | relative viability (Nelarabine + Foretinib; first compound 0.03162 µM) | relative viability (Nelarabine + Foretinib; first compound 0.1 µM) | relative viability (Nelarabine + Foretinib; first compound 0.3162 µM) | relative viability (Nelarabine + Foretinib; first compound 1 µM) | relative viability (Adavosertib + AZD7762; first compound 0.03162 µM) | relative viability (Adavosertib + AZD7762; first compound 0.1 µM) | relative viability (Adavosertib + AZD7762; first compound 0.3162 µM) | relative viability (Adavosertib + Vorinostat; first compound 0.03162 µM) | relative viability (Adavosertib + Vorinostat; first compound 0.1 µM) | relative viability (Adavosertib + Vorinostat; first compound 0.3162 µM) | relative viability (Adavosertib + Vorinostat; first compound 0.01 µM) | relative viability (Adavosertib + AZD7762; first compound 0.01 µM) |
| --- | --- | --- | --- | --- | --- | --- | --- | --- | --- | --- | --- | --- | --- | --- | --- | --- | --- | --- |
| NCI-H2405 | 0.918 | 0.824 | 0.769 | 0.784 | 0.818 | 1.07 | 1.04 | 0.95 | 0.988 | 1.03 | 0.663 | 0.331 | 0.276 | 0.882 | 0.965 | 0.895 |  |  |
| NCI-H2023 | 0.831 | 0.672 | 0.59 | 0.578 | 0.605 | 0.942 | 0.737 | 0.876 | 0.899 | 0.818 |  |  |  | 0.494 | 0.348 | 0.16 | 0.671 |  |
| NCI-H1975 | 1.15 | 0.91 | 1.11 | 1.08 | 1.1 | 1.01 | 0.892 | 1.14 | 0.986 | 1.07 | 0.677 | 0.663 | 0.641 | 0.676 | 0.676 | 0.571 | 0.973 | 0.713 |
| EPLC-272H | 1.01 | 0.928 | 1 | 0.946 | 0.861 | 0.81 | 0.503 | 0.655 | 0.66 | 0.584 | 0.151 | 0.127 | 0.135 | 0.481 | 0.281 | 0.14 | 0.384 | 0.161 |
| NCI-H2228 | 0.414 | 0.371 |  | 0.351 | 0.436 | 0.977 | 1.02 |  | 0.956 | 0.86 |  |  |  | 0.606 | 0.536 | 0.294 |  |  |
| NCI-H1648 |  |  |  |  |  |  |  |  |  |  | 0.532 | 0.533 | 0.414 | 0.407 | 0.419 | 0.532 | 0.498 | 0.549 |
| NCI-H522 |  |  |  |  |  |  |  |  |  |  | 0.733 | 0.782 | 0.882 | 0.968 | 1.02 | 0.871 | 0.875 | 0.654 |
| NCI-H1299 | 1.04 | 1.03 | 0.963 | 0.979 | 0.966 | 1.15 | 1.08 | 1.13 | 1.12 | 1.13 |  |  |  |  |  |  |  |  |
| SW 1573 | 0.788 | 0.769 | 0.745 | 0.733 | 0.717 | 0.889 | 1.09 | 0.882 | 0.952 | 0.86 |  |  |  | 0.687 | 0.904 | 0.758 | 0.807 |  |
| COR-L 105 | 0.998 | 0.752 | 0.678 | 0.894 | 0.844 | 0.953 | 0.991 | 1.26 | 1.08 | 0.967 |  |  |  | 0.848 | 0.898 | 0.677 | 0.892 |  |
| HCC-44 | 0.989 | 0.782 | 0.783 | 0.819 | 0.739 |  |  |  |  |  | 0.971 | 1.02 | 0.902 | 1.06 | 1.09 | 1.07 | 1.09 | 0.989 |
| COR-L23 | 0.692 | 0.706 | 0.574 | 0.617 | 0.628 | 1.23 | 1.02 | 0.917 | 0.992 | 0.964 |  |  |  | 0.406 | 0.386 | 0.166 | 0.486 |  |
| SW 900 |  |  |  |  |  | 1.02 | 0.749 | 0.934 | 0.947 | 0.832 | 0.422 | 0.281 | 0.175 | 0.492 | 0.424 | 0.268 | 0.445 | 0.559 |
| NCI-H1563 | 0.815 | 0.93 | 0.797 | 0.845 | 0.841 | 0.809 | 0.967 | 0.811 | 0.955 | 0.905 |  |  |  |  |  |  |  |  |
| NCI-H2342 |  |  |  |  |  | 0.974 | 0.887 | 0.875 | 0.906 | 1.01 | 0.508 | 0.48 | 0.43 | 0.833 | 0.741 | 0.864 | 0.679 | 0.524 |
| SK-LU-1 | 1.27 | 0.518 | 1.04 | 1.01 | 0.994 | 1.03 | 0.584 | 0.951 | 0.896 | 1.03 |  |  |  | 0.831 | 0.666 | 0.453 | 0.734 |  |
| IA-LM | 1.08 | 0.674 | 0.844 | 0.876 | 0.791 | 1.37 | 1.01 | 1.23 | 1.18 | 1.27 |  |  |  | 0.904 | 1.07 | 1.12 |  |  |
| NCI-H2009 | 1.12 | 0.99 | 0.971 | 1.08 | 1.05 | 1.19 | 1.2 | 1.31 | 1.22 | 1.27 |  |  |  | 0.743 | 0.9 | 0.676 | 0.829 |  |
| NCI-H661 |  | 0.877 | 0.989 | 0.973 | 0.934 | 1.15 | 1.2 | 1.02 | 1.05 | 1.06 |  |  |  | 0.809 | 0.764 | 0.351 | 0.847 |  |
| NCI-H1793 |  |  |  |  |  | 0.84 | 0.747 | 0.709 | 0.731 | 0.713 | 0.2 | 0.14 | 0.179 | 0.739 | 0.581 | 0.745 | 0.695 | 0.407 |
| NCI-H1623 |  |  |  |  |  | 0.971 | 0.818 | 0.879 | 0.757 | 0.834 |  |  |  |  |  |  |  |  |
| NCI-H1650 | 1.07 | 0.809 | 0.999 | 0.981 | 0.847 | 1.13 | 1.16 | 1.11 | 1.37 | 1.19 |  |  |  | 0.731 | 0.485 | 0.389 | 0.63 |  |
| UMC-11 | 0.52 | 0.499 | 0.476 | 0.652 | 0.495 | 1.23 | 0.961 | 0.963 | 1.11 | 0.972 |  |  |  | 0.405 | 0.346 | 0.308 | 0.438 |  |
| Calu-6 | 0.848 | 0.613 | 0.879 | 0.825 | 0.826 | 1.01 | 0.826 | 0.9 | 0.959 | 0.928 |  |  |  |  |  |  |  |  |
| NCI-H1792 | 0.821 |  | 1.29 | 1.15 | 1.03 |  |  |  |  |  | 0.652 | 0.452 | 0.135 |  |  |  |  | 0.683 |
